Source: patent US7034055B1, “2-aminoindane analogs” (Prescient Neuropharma Inc., priority 1999, dated 2006)
Read-outs that look alike come from different tables or passages of the source.

Legend:
[1] = system: Group II/III metabotropic glutamate receptors (mGluRs); assay: Cyclic AMP assay (ex vivo, forskolin-induced cAMP accumulation in rat cortical slices); assay type: cell-based, Sprague Dawley rat
Description: The assay of cyclic AMP formation can be performed as described previously (Tovey et al., Clinica Chimica Acta, 56, 221-234, 1974). The assay can be modelled on the cyclic AMP assay kit available from Amersham, which in turn, is based on the assay created by Tovey et al. Briefly, samples are prepared from Sprague Dawley rat (225-250 g) cortical slices. Slices are incubated with the drug, and then challenged with forskolin to induce cyclic AMP release. Following termination of the reaction by boiling, the slices are homogenized and centrifuged. Samples of supernatant are then incubated for 2-3 hours with a known quantity of [^3H]cAMP and a binding protein. […] The resulting supernatant (containing free cyclic AMP) is then analyzed by liquid scintillation counting. The amount of unbound cyclic AMP can be calculated from a standard curve previously determined with various samples of free cyclic AMP. […]
The assay has been modeled on the cyclic AMP assay kit available from Amersham. […] Samples of supernatant were then incubated for 2-3 hours with a known quantity of [^3H]cAMP and a binding protein. […] The resulting supernatant (containing free cyclic AMP) was then analyzed by liquid scintillation counting. The amount of unbound cyclic AMP was calculated from a standard curve previously determined with various samples of free cyclic AMP. […]

[2] = system: Group I metabotropic glutamate receptors (mGluRs); assay: Phosphatidylinositol assay (ex vivo, inositol phosphate accumulation in neonatal rat tissue slices); assay type: cell-based, Sprague Dawley rat; settings: antagonist, versus ACPD, 45 minutes
Description: Briefly, cross-chopped slices are prepared from neonatal Sprague Dawley rat tissue (age: p7-p14). The slices are pre-labelled with [^3H] myo-inositol. Following pre-labelling, the slices are incubated with the test drugs and standard (known Group I agonists i.e. ACPD) for a period of 45 minutes. The incubation is terminated by the addition of chloroform/methanol/HCl (100:200:2). The resulting mixture is separated into two phases by the addition of chloroform and distilled water. The aqueous fraction is applied to ion exchange columns, and inositol phosphates are eluted using 800 mM Ammonium Formate/100 mM Formic Acid. The eluent is then analyzed using liquid scintillation counting. The amount of inositol phosphate accumulation is expressed as a percentage of that induced by ACPD.
Group I metabotropic glutamate receptors (mGluRs) are positively coupled on inositol phosphate metabolism. Agonists at these receptors lead to an increase in intracellular free inositol phosphates, while antagonists inhibit the increase in intracellular free inositol phosphate induced by standard agonists (i.e. ACPD).
Cross-chopped slices were prepared from neonatal Sprague Dawley rat tissue (age: p7-p14). […] The eluent was then analyzed using liquid scintillation counting. The amount of inositol phosphate accumulation was expressed as a percentage of that induced by ACPD. […]

EC50 ([1]; agonist, read-out: Group II/III Agonist EC50) [µM] | EC50 [2] [µM] | EC50 ([1]; antagonist, versus glutamate, read-out: Group II/III Antagonist EC50) [µM] | Structure (SMILES)
0.11 | 1600 | – | N[C@]1(C(=O)O)Cc2ccccc2[C@H]1CC(=O)O (relative stereo) [Trans-2 amino-2-carboxyindaneacetic acid (compound 8)]
– | 2.2 | 0.0012 | N[C@@]1(C(=O)O)Cc2ccccc2[C@H]1CC(=O)O (relative stereo) [Cis-2 amino-2-carboxyindaneacetic acid (compound 8)]
